This is an account of results in patent publication US11660265B2, “Method of rapidly achieving therapeutic concentrations of triptans for treatment of migraines and cluster headaches” (ZP Opco, Inc., priority 2018, dated 2023).

The test system of one series is 5HT1B/1D. The note with it: cited from earlier work.
Series [1] addresses T1, recombinant human 5-HT1D receptors (Homo sapiens, UniProt P28221).
T1 construct: expressed in transfected cells; host or cells: CHO-K1
Put plainly: Ligand-receptor binding kinetics, 3H-5-carboxamidotryptamine competition, CHO-K1 membranes. As for the experimental part:
(§1) Membrane preparations were derived from transfected CHO-K1 cells expressing recombinant human 5-HT1B and 5-HT1D receptors. […] After incubating for various lengths of time, membranes were washed by filtration and residual ^3H counts were determined on a microplate scintillation counter. On-rate constant (kon), off-rate constant (koff), and equilibrium dissociation constant (KD) were determined using nonlinear regression on Prism 4 (GraphPad), and Xlfit (IDBM) software. The following formulae were used in calculating additional parameters using previously derived^2 pharmacokinetic data in healthy human volunteers. Residence time for each ligand on 5-HT1B and 5-HT1D receptors=1/koff.

For series [2], the target named is T2, recombinant human 5-HT1B receptors (Homo sapiens, UniProt P28222).
T2 construct: expressed in transfected cells; host or cells: CHO-K1
T2 sequence (P28222 whole entry): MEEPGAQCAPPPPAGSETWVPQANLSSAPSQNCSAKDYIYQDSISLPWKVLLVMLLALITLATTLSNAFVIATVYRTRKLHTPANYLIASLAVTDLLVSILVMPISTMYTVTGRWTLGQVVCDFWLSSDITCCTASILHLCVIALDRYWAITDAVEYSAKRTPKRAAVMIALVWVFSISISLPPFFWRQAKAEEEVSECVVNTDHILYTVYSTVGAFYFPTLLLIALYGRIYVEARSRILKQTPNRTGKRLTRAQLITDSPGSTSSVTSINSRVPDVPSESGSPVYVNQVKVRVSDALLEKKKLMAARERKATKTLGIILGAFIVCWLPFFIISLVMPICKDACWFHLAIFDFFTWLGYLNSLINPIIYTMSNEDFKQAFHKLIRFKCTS
The description is as above. The procedure: as §1

The conditions of series [3]: cited from earlier work; for Bioavailability: oral tablet.
The subject of another series is migraine. The note with it: cited from earlier work; for Pain freedom at 2 hours / Pain relief at 2 hours: lowest oral dose.
Another series in a line: clinical. The procedure: The final treatment administered was 3.8 mg on a 10 cm^2 patch using an applicator with 0.52 Joule of application energy in the intracutaneous microneedle system described herein. The products tested were:
This was a single-center, open-label, randomized five-way crossover study (Part 1) followed by a sequential study of two additional treatments (Parts 2 and 3). After obtaining informed consent and establishing eligibility, each subject received each of the seven study treatments once, followed by in-clinic monitoring and extensive blood sample collection for pharmacokinetic analysis. […] Plasma samples from the initial dosing days were sent to the analytical laboratory for analysis, and tolerability for each of the dose levels was summarized. […] During Part 3, subjects received a single 3.8 mg patch (applied with a 0.52 J applicator) and also completed identical procedures to the previous dosing days. After completion of the seven dosing days, subjects were assessed one final time and dismissed from the study.
Twenty subjects were enrolled in the study, 10 males and 10 females. The subjects mean age was 29 years±3.5 years with a mean BMI of 24.4±3.5.
PK parameters were summarized by treatment group using descriptive statistics (arithmetic means, standard deviations, coefficients of variation, sample size, minimum, maximum, and median).

Series [4] can be described thus: Solubility of zolmitriptan in various acids. It counts as physicochemical. The note with it: 5 °C, thermodynamic from solid, 2-8° C. The text has this:
The suspension was then centrifuged.

The next series can be described thus: in vivo. On the set-up: species or system swine. The following applies: Yorkshire, pig, iv. The procedure: The M207 patch was tested in swine. Intravenously administered zolmitriptan was used as a control. The inner thigh of the swine was used as the site of administration.
The low limit of quantitation (LLOQ) and high-limit of quantitation (HLOQ) were 0.1 and 1000 ng/mL, respectively. A four minute method utilizing high performance liquid chromatography-electrospray ionization-tandem mass spectrometry (HPLC-ESI-MS/MS) was developed for quantitation of zolmitriptan and its two major metabolites in HGP plasma. The instrumentation consist of Agilent® 1200 pumps, CTC PAL® Autosampler with cooling stack, AB Sciex® TurboV® ESI source, and API 4000® mass spectrometer.
All plasma samples and standards were first protein precipitated using 100% methanol and then diluted with 30% solution of acetonitrile at 1:2 ratio (Plasma: 30% ACN), 20 μL of this solution was injected into autosample. The autosample was equipped with a 100 μL syringe and a 100 μL loop. […]
The HPLC method used was a reversed phase gradient method (0.0 min, 10% B; 0.5 min, 10% B; 1.0 min, 40% B; 1.7 min, 40% B; 2.1 min, 10% B; 4.0 min, 10% B). […] During the mass spectrometer acquisition, eleven MRM transitions were monitored. […] The peak areas under each corresponding MRM transitions were summed and compared to that of spiked standard plasma samples to calculated concentration for each sample. […]

Setting [5] is: both, human, in vivo, AUC0-2 hr (SD).
[6] abbreviates: both, human, in vivo, AUC0-last (SD).
[7] abbreviates: both, human, in vivo, AUC2 hrs, Mean.
Setting [8] is: both, human, in vivo, AUCinf, Mean.
Where [9] appears, read: both, human, in vivo, Cmax (SD).
[10] abbreviates: both, human, in vivo, Cmax, Mean.
Where [11] appears, read: both, human, in vivo, Tmax Med (Range).
Setting [12] is: both, human, in vivo, t1/2, Mean.
Where [13] appears, read: plasma N-desmethyl zolmitriptan metabolite.
The mark [14] stands for this setting: plasma N-desmethyl zolmitriptan metabolite, in ng·h/mL.

≈ marks a conversion by molar mass, not a printed value. Where two headings read alike, the source gives them in different places.

T1 sequence (P28221 whole entry): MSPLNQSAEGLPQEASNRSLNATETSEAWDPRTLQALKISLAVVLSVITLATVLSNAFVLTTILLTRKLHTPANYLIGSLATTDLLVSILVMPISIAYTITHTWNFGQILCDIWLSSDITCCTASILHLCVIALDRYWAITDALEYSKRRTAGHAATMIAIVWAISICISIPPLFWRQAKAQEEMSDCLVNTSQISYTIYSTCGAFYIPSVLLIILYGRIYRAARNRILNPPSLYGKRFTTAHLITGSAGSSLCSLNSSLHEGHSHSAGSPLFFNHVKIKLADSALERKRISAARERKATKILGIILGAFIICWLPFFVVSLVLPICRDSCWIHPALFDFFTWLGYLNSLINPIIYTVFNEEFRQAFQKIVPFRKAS

A word on the Kd: it is the equilibrium constant for the complex coming apart. As usually defined, the koff is a measure of how fast the partners let go of each other. Broadly, the kon is a measure of how fast the partners come together. Take `CNCCc1c[nH]c2ccc(C[C@H]3COC(=O)N3)cc12` [N-desmethyl zolmitriptan]: in the series on 5HT1B/1D, the “5HT1B/1D potency relative to the parent” value was 2 to 6 times. In series [1], the dissociation constant (Kd) is 0.43 nM, the off-rate (koff) turned out to be 0.0009 s⁻¹ and the kon was found to be 2.1e+06 M⁻¹ s⁻¹. Further, in series [2], the Kd was 0.92 nM, the koff was 0.000833 s⁻¹ and the kon came to 900000 M⁻¹ s⁻¹.
One may read the Tmax as the time from dosing to the highest level. In general, AUC(0-t) refers to the area under the concentration-time curve up to a stated or last time point. High values mean high exposure, low ones low exposure. One may read the AUC(0-inf) as the area under the concentration-time curve extrapolated to infinity. Read a high AUC(0-inf) as more exposure. Usually Cmax stands for the maximum level reached in the sampled fluid or tissue. The half-life is how long it takes for the measured level to halve. Higher therefore signals slow decline. Turning to `CNS(=O)(=O)Cc1ccc2[nH]cc(CCN(C)C)c2c1` [Sumatriptan, sumatriptan], the Tmax result in series [3] (conventional oral tablet) was “about 2 hours”; in “clinical” (setting [11]), 0.167 h; in the series “clinical” (both, human, in vivo, sc, tmax Median (Range)), 0.167 h. The Bioavailability entry in series [3] is “about 15%”. Also, the 24-hour recurrence rate in the series on migraine (among those who achieved headache resolution, 6 mg, different trial) is recorded as 38%. Also, the AUC(0-t) is 70.9 ng·h/mL in the series “clinical” (setting [5]), 101 ng·h/mL in the series “clinical” (setting [6]) and 70.9 ng·h/mL in “clinical” (setting [7]). Also, the AUC(0-inf) in “clinical” (setting [8]) was determined as 105 ng·h/mL. Further, the Cmax in “clinical” (setting [9]) and in the series “clinical” (setting [10]) was 88.8 ng/mL throughout. The half-life in “clinical” (both, human, in vivo, sc, t1/2 Mean (SD)) was 1.14 h; in “clinical” (setting [12]) it was 1.14 h.
As for `CN(C)CCc1c[nH]c2ccc(C[C@H]3COC(=O)N3)cc12` [Zolmitriptan 2.5 mg Oral Tablet, zolmitriptan], the “Reduction of Cmax and AUC by administration with food” value in series [3] (conventional release tablets) is recorded as 13-16%. Besides, the Bioavailability in series [3] was 41 and 48%. The compound also returned an AUC0-last / Dose in the series “clinical” (both, human, in vivo) of 8.6 ng·h/mL/mg. The “Time to peak plasma concentration of the N-desmethyl metabolite” value in the series “clinical” (both, human, in vivo) was 2.7 h. In addition, in “clinical” (both, human, in vivo), the “Tmax of N-desmethyl metabolite” value was found to be 2.71 h. Moreover, in “clinical” (both, human, in vivo), the “Tmax, Mean” value turned out to be 1.79 h. The AUC(0-t) turned out to be 4.7 ng·h/mL in the series “clinical” (setting [5]); 22.2 ng·h/mL in “clinical” (both, human, in vivo, AUC0-last); 22.2 ng·h/mL in “clinical” (setting [6]); 4.72 ng·h/mL in the series “clinical” (setting [7]); 4.92 ng·h/mL in “clinical” (both, human, in vivo, AUC2 hrs, Median); 22.2 ng·h/mL in “clinical” (both, human, in vivo, AUCt, Mean). In the series “clinical” (both, human, in vivo, AUCt, Median), this compound displayed an AUC(0-t) of 22.6 ng·h/mL. The total exposure AUC(0-inf) turned out to be 27.2 ng·h/mL in “clinical” (setting [8]) and 27.1 ng·h/mL in the series “clinical” (both, human, in vivo, AUCinf, Median). The Cmax in the series “clinical” (both, human, in vivo, Cmax) was 3.8 ng/mL; in “clinical” (setting [9]) it was 3.8 ng/mL; in the series “clinical” (setting [10]), 3.77 ± 1.51 ng/mL; in the series “clinical” (both, human, in vivo, Cmax, Median), 3.7 ng/mL. The Tmax in the series “clinical” (both, human, in vivo, Tmax) is 1.8 ± 1.27 h; in the series “clinical” (both, human, in vivo, Tmax (range), median) it was 1 h; in the series “clinical” (setting [11]), 1 h; in the series “clinical” (both, human, in vivo, Tmax, Mean), 1.79 h; in the series “clinical” (both, human, in vivo, Tmax, Median), 1 h. Also, the half-life was 3.27 ± 0.8 h in the series “clinical” (setting [12]) and 3.28 h in the series “clinical” (both, human, in vivo, t1/2, Median).
As a reminder, the solubility is the concentration that dissolves in the medium under given conditions. Read a low solubility as a poorly soluble substance. Take `CN(C)CCc1c[nH]c2ccc(C[C@H]3COC(=O)N3)cc12` [Zolmitriptan, zolmitriptan]: the time to peak (Tmax) result in series [3] (nasal administration) is “about 1.5 hours”; in the series “clinical” (both, human, in vivo, 2.5 mg, tmax Median (Range)), 1 h; in “clinical” (both, human, in vivo, tmax Median (Range)), 0.3 h; in the series “in vivo”, 1 min. The “Pain freedom at 2 hours” value with migraine is recorded as 29%. Also, the “Pain relief at 2 hours” value in the series on migraine is listed as 62%. Moreover, in “clinical” (both, human, in vivo, 2.5 mg, AUC2 hrs Mean (SD)), the AUC(0-t) came to 4.72 ng·h/mL. In addition, in “clinical” (both, human, in vivo, 2.5 mg, AUCinf Mean (SD)), the AUC(0-inf) amounted to 27.2 ng·h/mL. This compound registered a Cmax in “clinical” (both, human, in vivo, 2.5 mg, Cmax Mean (SD)) of 3.77 ng/mL. In addition, the half-life in “clinical” (both, human, in vivo, 2.5 mg, t1/2 Mean (SD)) was 3.27 h; in “clinical” (both, human, in vivo, t1/2 Mean (SD)), 1.53 h. Moreover, the solubility is 88.6 mg/mL (≈ 308 mM) in series [4] (aqueous buffer, 0.1 M citric acid); 50.5 mg/mL (≈ 176 mM) in series [4] (aqueous buffer, 0.1 M maleic acid); 59.1 mg/mL (≈ 206 mM) in series [4] (aqueous buffer, 0.1 M succinic acid); 63.3 mg/mL (≈ 220 mM) in series [4] (aqueous buffer, 0.1 M tartaric acid); 33.3 mg/mL (≈ 116 mM) in series [4] (simulated gastric fluid, 0.1 M HCl). Also, the Kd in series [1] was found to be 0.34 nM; in series [2], 1.47 nM. For the same compound, the koff in series [1] (read-out: koff (converted)) is 0.001 s⁻¹; in series [2] (read-out: koff (converted)), 0.00127 s⁻¹. For the same compound, the kon in series [1] (read-out: kon (converted)) is 2.9e+06 M⁻¹ s⁻¹; in series [2] (read-out: kon (converted)) it was 883000 M⁻¹ s⁻¹.
As to `CNS(=O)(=O)CCc1ccc2[nH]cc(C3CCN(C)CC3)c2c1` [naratriptan], in the series on migraine, the “Pain freedom at 2 hours” value is 18% and the “Pain relief at 2 hours” value is given as 49%.
On to `CN(C)CCc1c[nH]c2ccc(C[C@H]3COC(=O)N3)cc12` [nasal treatment of zolmitriptan, zolmitriptan], for which the “Patients pain free at 1 hour” value in the series on migraine (nasal treatment) was “about 10%”.
Consider `CN(C)CCc1c[nH]c2ccc(C[C@H]3COC(=O)N3)cc12` [orally disintegrating tablets, zolmitriptan], for which the Tmax entry in series [3] (orally disintegrating tablets) is listed as “about 3 hours”.
Turning to “zolmitriptan [Zolmitriptan 2.5 mg Oral Tablet]”, in “clinical” (setting [13]), the AUC2 hrs, Mean turned out to be 2.31 ng·h/mL; the AUC2 hrs, Median is 2.24 ng·h/mL; the Cmax, Mean is 2.08 ng/mL; the Cmax, Median came out at 2.04 ng/mL. In “clinical” (setting [14]), the “AUCinf, Mean” value came to 14.55; the “AUCinf, Median” value was found to be 14.31; the “AUCt, Mean” value was found to be 13.71; the “AUCt, Median” value turned out to be 13.76.
